Results as given in US7737250B2, “Peptides for treating axonal damage, inhibition of neurotransmitter release and pain transmission, and blocking calcium influx in neurons” (Mount Sinai School of Medicine of New York University, priority 2003, dated 2010).
Entries after “also recorded” stand apart in the source; their conditions may differ.

Tests used:
[1] = test system: secretion of Substance P from DRG neurons; assay: Substance P secretion, single-cell immunoblot assay; type: cell-based, chick; conditions: baclofen in addition to AP-YF peptide
Procedure: Secretion Assay: Secretion of substance P was analyzed using the single-cell immunoblot method adapted from Huang and Neher (Huang, L. Y., Neher, E. (1996) Neuron. 17, 135-45.). Briefly, polyvinylidene difluoride transfer membranes (Immobilon P brand from Millipore) were cut to […] and placed in a 6-well plate. Membranes were pre-wetted with methanol for 20 s, rinsed with distilled water and allowed to equilibrate in test solution for >1 hr. In parallel, DRG cells plated were incubated with media containing AP-YF or AP-Scr (1.4 μg/ml) for 1 hour. This media was removed, and replaced with 70 μl of test solution. The membranes were then placed on top of the cells, and allowed to incubate at 37° C. in a humidified CO2 incubator for 30 min. The membranes were then carefully removed from the cells and allowed to dry completely and fixed with powdered paraformaldehyde at 80° C. for 1 hr. Fixed membranes were rinsed in PBS (1 mM KH2PO4, 10 mM Na2HPO4, 137 mM NaCl, 2.7 mM KCl) containing 1% Triton X-100 (PBS-T) to remove excess paraformaldehyde, and blocked with PBS-T containing 3% fetal bovine serum (FBS) for 30 min at room temperature. The membranes were incubated with anti-substance P antibody (Santa Cruz) at 1:200 dilution in PBS-T with 1% FBS overnight in 37° C. incubator. The next day the membranes were developed with a peroxidase/diamninobenzidine (DAB) reaction using the ABC staining kit from Santa Cruz Biotechnology. Images were taken using a CCD camera, and analyzed using Photoshop and NIH image software. Data were plotted by assigning an upper and lower limit of gray values and plotting % of cells at a range within those limits. By plotting graphs as % of cells in a dynamic range, multiple experimental runs were pooled.

[2] = test system: cell-surface myc-L1-CAM on ND-7 cells; assay: Cytoskeleton attachment assay: resistance of 9E10 bead-myc-L1-CAM complexes to lateral displacement by laser trap; type: cell-based, rat; conditions: 2 μM cytochalasin D; ND-7 cells expressing myc-L1-CAM
Procedure: Cell culture and transfection: ND-7 cells (rat neuroblastoma/DRG hybrid cells) were cultured as described in Example 2. 24 hours prior to transfection, cultured cells were plated on coverslips coated with poly-D-lysine and laminin sealed to the bottom of 35 mm culture dishes (Mattek Corp.). Plated cells were transfected with the pL1-CAM or pMyc-L1-CAM expression constructs using Lipofectamine plus (Invitrogen) according to manufacturer's instructions. Transfected cells were cultured for 24-36 hours, and then used for live microscopy. For laser trap and video microscopy, the medium was replaced with phenol red-free serum-free L15 medium (air buffered) with 20 mM HEPES, 0.1% BSA, 0.5% ovalbumin. Cells transfected with the bicistronic expression constructs express a single mRNA encoding both the myc-L1-CAM proteins and EGFP, such that transfected cells were identified by EGFP fluorescence. […]
Video microscopy, laser tweezers, and data analysis: The 9E10-coated latex beads were then placed and held with an optical gradient laser trap on the surface of transfected cells at a distance of between 0.5 and 1 μm from the leading edge for 2 seconds. […] This wavelength was previously determined to generate the fewest heating artifacts in live cells (Svoboda and Block. Biomol Struct 1994;23:-247-285 and Choquet et al. Cell 1997;88:39-48). […]

[3] = test system: cell-surface myc-L1-CAM on ND-7 cells; assay: L1-CAM diffusion behavior assay: movement of 9E10-coated beads bound to myc-L1-CAM (video microscopy, laser tweezers); type: cell-based, rat; conditions: ND-7 cells expressing wild-type myc-L1-CAM; cytochalasin D 2 μM, nocadazole 1 μM, NGF 100 ng/mL 1 hour
Text: Video microscopy, laser tweezers, and data analysis: The 9E10-coated latex beads were then placed and held with an optical gradient laser trap on the surface of transfected cells at a distance of between 0.5 and 1 μm from the leading edge for 2 seconds. The laser trap consisted of a Titanium Sapphire (Coherent; model 890) solid state laser pumped by a 5 W frequency-doubled Neodymnium Vanadate laser (Verdi; Coherent) and tuned to 800 nm. This wavelength was previously determined to generate the fewest heating artifacts in live cells (Svoboda and Block. Biomol Struct 1994;23:-247-285 and Choquet et al. Cell 1997;88:39-48). Laser power at the output of the Titanium Sapphire laser was 40 mW, and prepared beads were placed and held on the cell surface for less than 3 sec to further reduce the possibility of heating artifacts. Laser light was introduced through the television port of the Axiovert microscope.
Video images of bead movement were collected using a newvicon camera (Dage MTI; VE-1000N) and background subtraction and contrast enhancement were carried using a Hamamatsu Argus 20 image processor. Raw data were recorded to sVHS video tape for subsequent analysis. Video recordings were subsequently digitized onto an Intel processor-based computer running the Isee imaging software (Isee Imaging) running under Red Hat Linux 7.1. Quantification of bead movement was carried out in Isee. Diffusional analysis was carried out using a custom spreadsheet in Excel (Microsoft). This spreadsheet carries out 4 operations: first, it scales the data from pixel measurements to nm using the appropriate scale factor (determined by the magnification used to observe bead movement); second, it subtracts the first point from all of the data, to set the origin at 0,0 (x,y coordinates); third, it rotates (in two dimensional space) the data around the origin so that the orientation of the cell is the same from trial to trial (here, the data was set so that the cells all face to the left); and fourth, the spreadsheet calculates the mean square displacement (MSD) data which are used to calculate diffusion coefficients and bead velocity. Individual traces were scored blind for classes of behavior. Statistical analysis of percentages of trials was carried out using chi-squared analysis or a Fisher's exact probability test.
MSD values were calculated as previously described (see Qian et al, 1991; Biophysical Journal 60 p910). For these calculations, the squared displacement (a^2+b^2; where a=xn+t−xn, b=a=yn+t−yn for any two points separated by time t) of the bead was calculated between two points in the data set. The mean of the squared displacements was calculated for each time interval t=1 to m, where m is the time interval that equals 10% of the length of the data set. The mean displacement was plotted with respect to time giving a curve with a linear or quadratic shape, depending on the behavior of the bead. Diffusion rates and velocity were calculated by fitting the curve with the equation MSD=4Dt+v^2t^2, where D is the diffusion coefficient, v is the velocity and t is time. D and v were calculated for each bead independently and presented as averages or as individual values, as described in each case.
Cell culture and transfection: ND-7 cells (rat neuroblastoma/DRG hybrid cells) were plated and transfected with pMyc-L1-CAM, pMyc-L1-CAM-YF, pMyc-L1-CAM-YH, or pMyc-L1-CAM-STOP expression constructs as described in Example 3, supra.
In some instances, ND-7 cells transfected with pMyc-L1-CAM were treated with the cytoskeletal inhibitor cytochalasin D (2 μM; Sigma) or nocadazole (1 μM; Sigma). For these experiments treatment with DMSO (0.01%) vehicle alone served as the negative control.
In some instances, ND-7 cells transfected with pMyc-L1-CAM were treated with neural growth factor (NGF) to stimulate phosphorylation of tyrosine 1229 (Y1229) of the L1-CAM cytoplasmic domain, and thereby inhibit ankyrin binding. […]

[4] = molecular target: T1, L1-CAM-ankyrin interactions (Homo sapiens, UniProt Q01484); assay: Ankyrin recruitment assay: ankyrinB co-localization with L1-CAM at the membrane of transfected 293 cells; type: cell-based; conditions: 50 ng/mL EGF or 100 ng/mL NGF for 1 hour
T1 construct: expressed in transfected cells; host or cells: human kidney 293 cells
Procedure: Cell culture aid transfection: Human kidney 293 cells were cultured in DMEM medium (Gibco) supplemented with penicillin, streptomycin, L-glutamine, and 10% fetal bovine serum (Hyclone). The pMyc-L1-CAM or pL1-CAM-GFP expression constructs were transfected into cultured human kidney 293 cells using Lipofectamine plus (Invitrogen) according to manufacturer instructions. Cells were cultured for 24-48 hours and then used, or cultured continuously in the presence of 0.5 μg.mL G418 (Gibco) to select for stably transfected cells lines, to generate stable pooled lines of L1-CAM-expressing cells.
In some instances, transfected 293 cells were treated with neural growth factor (NGF) or epidermal growth factor (EGF) to stimulate phosphorylation of tyrosine 1229 (Y1229) of the L1-CAM cytoplasmic domain, and thereby inhibit ankyrin binding. In these cases, cells were treated with 50 ng/mL EGF (Gibco) or 100 ng/mL NGF (Gibco) for 1 hour prior to the assay. […]
Ankyrin and L1-CAM were detected by indirect immunofluorescence in double-labeled confocal sections through cell aggregates to permit the visualization of L1 and ankyrinB at the cell membrane. Expression of myc-L1-CAM was detected using a polyclonal anti-L1-CAM rabbit antibody. […] Ankyrin was detected using a monoclonal anti-ankyrinB mouse antibody (BD PharMingen). […]
Quantification of ankyrin immunolocalization: Confocal micrographs were then used to quantify the degree of ankyrin localization to the cell membrane of myc-L1-CAM expressing cells. Images were analyzed using ImageJ (NIH) under Macintosh OSX. The method for quantifying ankyrinB localization to the membrane uses densitometry of a line scan perpendicular to and crossing a cell-cell junction. […]
The densitometry intensity profile of the scanned line was used to determine a minimum ankyrinB signal for comparison to the value of the ankyrinB signal at the point where the maximum signal in the L1-CAM channel occurs. […] Minima were determined from the regions of the line overlapping the cytoplasm of either of the two cells. […]

Cav2.2 channels = assay: Calcium channel distribution by confocal indirect immunofluorescence in DRG neurons; type: cell-based, chicken; conditions: DRG neurons; application of the transmitter
Procedure: Antibodies: Primary antibody: rabbit anti-pan α1 binds Ca channel (1:200 dilution, [1.5 μg/ml) [Alomone Labs; Jerusalem, Israel]. Secondary antibodies: (1:200 dilution, 10 μg/ml): tetramenthylrhodamine conjugated goat anti-rabbit IgG (H+L) [Molecular Probes; Eugene, OR]
Dorsal root ganglia were dissected from 11 to 12 day old embryos, incubated for 30 min in saline containing nominal Ca 2^+ and Mg 2^+, and 0.05% collagenase (type A, Boehringer Mannheim). Ganglia were dissociated mechanically into single cells by trituration in culture medium containing Dulbecco's modified Eagle's medium supplemented with 10% horse serum, 5% chicken embryo extract, penicillin, streptomycin, glutamine, and nerve growth factor. Cells were plated at a density of ˜50,000 cells/collagen-coated 35 mm tissue culture dish and studied between 1 and 3 days in vitro.
Immunohistochemistry: Cultures grown on poly-L-lysine cover glass slips were exposed to saline or 100 mM NE (norepinephrine), fixed and permeabilized in methanol at −20° C. for 15-minutes or 20 second (for residual experiment) followed by 3×5-min washes in PHEM Buffer [60 mM PIPES, 25 mM HEPES, 10 mM EGTA, 2 mM MgCl2, pH 6.9]. Cells were alternatively fixed with 4% paraformaldehyde in PHEM buffer, pH 6.9 for 20-min, washed 3×3-min with PHEM buffer and permeabilization with 0.1% Triton X-100/PHEM buffer for 3-min. Blocking was performed using 5% BSA in PHEM Buffer for 1-h at 4 C. Following overnight incubation with primary antibody in 1% BSA and 1% normal goat sera in PHEM Buffer at 4 C. After washes with PHEM Buffer, cover slips were incubated with fluorophore-conjugated secondary antibodies in 1% BSA PHEM Buffer for 1.5 hours at room temperature in the dark. […]
Images of fixed cells were obtained with a pinhole setting of 0.95 using a UV 100× 1.4NA oil Leica objective lens and an optical zoom between 1.4 and 2× at slow acquisition speed with 4× frame averaging accumulation. The number of sections was calculated by the Leica TCS software based on acquisition of sections at 240 nm intervals in the Z-plane. […]

T1 sequence (Q01484 whole entry): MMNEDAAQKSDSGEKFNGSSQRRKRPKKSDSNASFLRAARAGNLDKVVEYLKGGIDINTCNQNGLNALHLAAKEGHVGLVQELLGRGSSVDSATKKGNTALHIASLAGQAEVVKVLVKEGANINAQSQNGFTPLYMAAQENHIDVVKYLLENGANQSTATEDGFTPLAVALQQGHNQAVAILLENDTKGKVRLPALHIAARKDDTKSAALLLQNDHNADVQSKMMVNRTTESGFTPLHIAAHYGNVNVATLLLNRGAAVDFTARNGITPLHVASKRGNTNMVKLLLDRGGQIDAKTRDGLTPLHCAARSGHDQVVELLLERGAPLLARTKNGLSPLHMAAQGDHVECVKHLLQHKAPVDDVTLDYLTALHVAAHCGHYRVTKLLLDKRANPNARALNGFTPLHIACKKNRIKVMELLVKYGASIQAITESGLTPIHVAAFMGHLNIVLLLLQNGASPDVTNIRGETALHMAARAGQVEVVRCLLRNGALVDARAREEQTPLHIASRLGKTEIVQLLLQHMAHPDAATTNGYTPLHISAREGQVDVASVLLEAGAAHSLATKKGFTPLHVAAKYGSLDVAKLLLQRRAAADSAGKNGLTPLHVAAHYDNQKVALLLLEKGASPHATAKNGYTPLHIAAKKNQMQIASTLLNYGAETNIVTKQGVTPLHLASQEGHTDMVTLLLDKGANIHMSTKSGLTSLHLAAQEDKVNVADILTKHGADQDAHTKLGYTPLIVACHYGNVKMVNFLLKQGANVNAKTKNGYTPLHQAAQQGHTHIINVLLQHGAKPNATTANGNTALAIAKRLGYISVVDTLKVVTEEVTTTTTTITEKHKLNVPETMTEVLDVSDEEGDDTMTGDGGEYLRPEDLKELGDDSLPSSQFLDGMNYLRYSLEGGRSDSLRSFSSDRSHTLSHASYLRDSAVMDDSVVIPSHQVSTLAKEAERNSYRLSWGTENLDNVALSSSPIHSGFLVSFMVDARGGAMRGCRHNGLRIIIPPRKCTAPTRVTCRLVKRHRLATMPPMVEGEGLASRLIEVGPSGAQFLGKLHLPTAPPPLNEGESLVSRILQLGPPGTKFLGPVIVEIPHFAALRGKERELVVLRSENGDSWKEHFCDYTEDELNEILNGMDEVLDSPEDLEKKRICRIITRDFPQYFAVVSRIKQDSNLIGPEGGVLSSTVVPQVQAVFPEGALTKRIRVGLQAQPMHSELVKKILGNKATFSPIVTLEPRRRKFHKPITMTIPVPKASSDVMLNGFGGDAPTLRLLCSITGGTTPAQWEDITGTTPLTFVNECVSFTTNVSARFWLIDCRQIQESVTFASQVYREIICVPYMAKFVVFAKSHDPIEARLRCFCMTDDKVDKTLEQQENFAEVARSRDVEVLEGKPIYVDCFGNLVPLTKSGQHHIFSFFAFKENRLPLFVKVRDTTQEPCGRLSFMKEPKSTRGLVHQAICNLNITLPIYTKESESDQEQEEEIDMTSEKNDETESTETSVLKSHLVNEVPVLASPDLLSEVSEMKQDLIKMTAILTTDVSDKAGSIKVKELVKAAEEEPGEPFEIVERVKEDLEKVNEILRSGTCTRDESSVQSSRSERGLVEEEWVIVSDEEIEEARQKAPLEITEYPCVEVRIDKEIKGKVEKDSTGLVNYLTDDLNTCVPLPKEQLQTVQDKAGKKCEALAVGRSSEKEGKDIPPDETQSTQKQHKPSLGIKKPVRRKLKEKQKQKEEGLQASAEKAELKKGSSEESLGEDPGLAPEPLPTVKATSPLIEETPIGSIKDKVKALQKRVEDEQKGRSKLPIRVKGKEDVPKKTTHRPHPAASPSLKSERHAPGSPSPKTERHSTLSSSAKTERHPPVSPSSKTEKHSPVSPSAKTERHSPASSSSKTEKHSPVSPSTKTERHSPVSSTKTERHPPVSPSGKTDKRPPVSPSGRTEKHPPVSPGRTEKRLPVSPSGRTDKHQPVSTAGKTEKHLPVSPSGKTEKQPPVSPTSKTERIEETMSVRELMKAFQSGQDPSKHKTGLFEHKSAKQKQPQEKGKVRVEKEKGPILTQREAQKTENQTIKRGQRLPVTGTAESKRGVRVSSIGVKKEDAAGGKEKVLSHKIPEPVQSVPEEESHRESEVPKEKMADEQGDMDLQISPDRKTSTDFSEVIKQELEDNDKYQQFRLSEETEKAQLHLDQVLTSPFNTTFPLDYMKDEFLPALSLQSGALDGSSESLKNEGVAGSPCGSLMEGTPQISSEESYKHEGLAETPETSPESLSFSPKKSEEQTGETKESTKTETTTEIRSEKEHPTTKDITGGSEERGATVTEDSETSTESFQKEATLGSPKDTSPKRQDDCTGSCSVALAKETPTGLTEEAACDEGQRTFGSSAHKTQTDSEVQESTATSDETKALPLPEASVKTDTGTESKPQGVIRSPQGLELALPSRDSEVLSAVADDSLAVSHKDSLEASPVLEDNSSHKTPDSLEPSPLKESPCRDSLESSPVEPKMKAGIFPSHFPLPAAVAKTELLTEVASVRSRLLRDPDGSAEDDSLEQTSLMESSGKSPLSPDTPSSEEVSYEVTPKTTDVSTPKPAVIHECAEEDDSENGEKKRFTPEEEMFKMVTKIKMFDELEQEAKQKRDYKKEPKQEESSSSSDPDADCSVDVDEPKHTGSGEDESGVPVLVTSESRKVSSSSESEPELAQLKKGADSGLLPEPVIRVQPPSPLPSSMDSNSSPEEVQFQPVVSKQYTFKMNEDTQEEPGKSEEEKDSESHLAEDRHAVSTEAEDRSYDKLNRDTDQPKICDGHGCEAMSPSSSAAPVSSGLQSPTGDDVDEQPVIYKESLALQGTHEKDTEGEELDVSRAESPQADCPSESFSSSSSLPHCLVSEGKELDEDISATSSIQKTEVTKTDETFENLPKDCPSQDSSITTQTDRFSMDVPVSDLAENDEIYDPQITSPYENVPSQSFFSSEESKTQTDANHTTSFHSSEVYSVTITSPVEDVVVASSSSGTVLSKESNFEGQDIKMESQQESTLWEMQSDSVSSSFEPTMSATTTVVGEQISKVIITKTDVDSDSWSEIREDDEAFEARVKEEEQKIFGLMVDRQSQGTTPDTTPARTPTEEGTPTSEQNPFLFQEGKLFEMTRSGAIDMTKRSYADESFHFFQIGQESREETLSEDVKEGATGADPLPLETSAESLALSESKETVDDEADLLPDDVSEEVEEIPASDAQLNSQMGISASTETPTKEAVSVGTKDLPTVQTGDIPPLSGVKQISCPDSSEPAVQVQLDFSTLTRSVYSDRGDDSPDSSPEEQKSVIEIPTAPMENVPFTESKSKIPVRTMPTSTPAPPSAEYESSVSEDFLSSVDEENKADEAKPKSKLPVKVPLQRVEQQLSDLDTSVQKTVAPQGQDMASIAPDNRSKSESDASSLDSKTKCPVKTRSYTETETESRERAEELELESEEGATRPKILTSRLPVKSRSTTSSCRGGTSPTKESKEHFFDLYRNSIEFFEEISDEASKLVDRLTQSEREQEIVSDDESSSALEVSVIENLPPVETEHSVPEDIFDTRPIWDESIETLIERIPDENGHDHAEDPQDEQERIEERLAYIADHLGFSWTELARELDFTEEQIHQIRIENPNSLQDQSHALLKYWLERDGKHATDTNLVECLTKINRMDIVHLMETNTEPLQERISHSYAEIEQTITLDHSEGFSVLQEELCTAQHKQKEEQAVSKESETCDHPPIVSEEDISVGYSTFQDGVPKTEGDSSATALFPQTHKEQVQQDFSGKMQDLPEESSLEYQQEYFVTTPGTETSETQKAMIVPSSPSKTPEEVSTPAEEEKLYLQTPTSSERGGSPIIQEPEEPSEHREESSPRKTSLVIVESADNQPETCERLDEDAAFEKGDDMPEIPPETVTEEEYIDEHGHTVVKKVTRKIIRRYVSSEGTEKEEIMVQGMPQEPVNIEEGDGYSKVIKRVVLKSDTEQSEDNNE

Compound	% of trials diffusing [3] [%]	% of trials retrograde [3] [%]	% of trials stationary [3] [%]	also measured
NCC(CC(=O)O)c1ccc(Cl)cc1 (racemic) [Baclofen, 4-Amino-3-[4-chlorophenyl] butanoic acid]				DRG neurons secreting low levels of Substance P [1]: 75%
C=C1[C@@H](C)[C@H]2[C@H](Cc3ccccc3)NC(=O)[C@]23[C@H](OC(C)=O)/C=C/[C@@](C)(O)C(=O)[C@@H](C)C/C=C/[C@H]3[C@@H]1O [cytochalasin D]	83.3	0	16.7	bead rigidity on the cell surface (resistance to lateral displacement) [2]: entirely abolished
COC(=O)Nc1nc2cc(C(=O)c3cccs3)ccc2[nH]1 [nocadazole]	25	43.75	31.25	
EGF: epidermal growth factor (Gibco)				ankyrin B colocalization with L1-CAM at the cell membrane [4]: significant reduction; also recorded: inhibited ankyrin membrane localization
NC[C@H](O)c1ccc(O)c(O)c1 (racemic) [norepinephrine, Norepinephrine]				punctate distribution of Cav2.2 channels in the membrane (Cav2.2 channels): rapidly (within 2s) reduced
